How the values were obtained:
HUVECs [1] = assay: bFGF-stimulated HUVEC growth in low serum (1% FCS), crystal violet; type: cell-based; details: Homo sapiens, bFGF 10 ng/ml
Method: (§1) Human umbilical vein endothelial cells (H 930) were generously supplied by Dr. Tom Maciag, American Red Cross (Gaithersburg, Md., USA) and were used between passages 9 and 14 to avoid senescence. HUVECs were grown on fibronectin-coated tissue culture plastic (200 μg/150 mm dish) in complete medium (Medium 199 (M-199) containing 5 U/mL preservative-free heparin, 25.5 μg/mL ECGS, 10% fetal bovine serum and 100 U/mL penicillin, 100 μg/mL streptomycin, and 0.25 μg/mL fungizone).
Growth inhibition of HUVECs by compound 1 was measured by crystal violet nuclear stain. Briefly, 50,000 cells were seeded per well in 24 well plates using complete medium in the presence of increasing concentrations of compound 1 (0.01-10 μM) or DMS0 vehicle control (0.1%) and cultures were incubated for 24-120 hours. […] Optical density of the eluted samples was determined at 540 nm and the results were expressed as percent of DMSO control cell growth. Data are expressed as percentage of control value and are presented as mean±SEM (n=3).
To evaluate the effect of bFGF on HUVECs growth, cells were plated in low serum medium (1% FCS) in the presence of 10 ng/ml of bFGF and increasing concentrations of compound 1. At the indicated time, cells were fixed, stained, and quantitated as described above.

HUVECs [2] = assay: HUVEC motility (modified Boyden chamber chemotaxis); type: cell-based, human; details: 18 hr preincubation
Method: as §1
A modified Boyden chamber system was used to determine whether compound 1 could modulate the chemotactic stimulation of endothelial cells by fibronectin, laminin, type IV collagen or thrombospondin. The particular system used has been described for tumor cell motility. See, Minniti, et al., J. Biol. Chem. 267:9000-9004 (1992). Modifications were made as to cell number, membrane pore size, and time of incubation were tested to determine optimal conditions for the HUVECs.
HUVECs were pretreated as described above for adhesion and resuspended at 2×10^6 cells/mL in M-199 containing 0.1% bovine serum albumin. Cells were seeded in the upper compartment of the chamber separated from the lower compartment by a gelatin-coated Nucleopore filter with 8μ pores. Laminin (100 μg/mL), fibronectin (30 μg/mL), type IV collagen (100 μg/mL) or thrombospondin (20 μg/mL) were diluted from stock solutions into control medium (M-199 plus 0.1% BSA) and were used as chemoattractants in the lower chamber. HUVECs were incubated with DMSO control (0.1%) or compound 1 (0.1-10 μM) for 18 hr prior to the motility assay. Compound 1 and DMSO were maintained with the cells throughout the experiment. Assays were incubated at 37° C. for 2 hours after which the filters were removed, fixed, and stained. Cell migration was quantited by counting five high power fields in triplicate pellets of migrated cells. Results are expressed as percentage of control cell migration (x±SEM, n=3).

MMP-2 = assay: Gelatin zymography of HUVEC conditioned medium, bFGF-stimulated proMMP-2 and its activated form; type: cell-based; details: Homo sapiens, bFGF 10 ng/mL for final 24 hr, read-out: inhibition of bFGF-stimulated synthesis of proMMP-2 and its activated form
Method: as §1
Gelatin zymography was carried out as described in Brown, et al., Cancer Research 50:6184-6191 (1990). HUVECs were seeded at 1.2×10^5 /cm^2 in 25 cm^2 fibronectin-coated tissue culture flasks in complete medium containing increasing concentrations of compound 1 (0.1-10 μM) or DMSO vehicle control. After 18 hr of culture, the complete medium was removed and the cells were washed once with serum-free M-199 supplemented with 5 μg/mL bovine insulin, 5 μg/mL human transferrin and 5 ng/mL sodium selenite (ITS). A further 24 hr incubation was carried out with 3 mL of fresh ITS-containing M-199 and varying concentrations of compound 1 (0.1-10 μM) or DMSO vehicle control (0.1%). This conditioned medium was harvested and spun free of cells.
See, Rifkin, et al., J. Cell Biol. 109:1-6 (1989). […]

HUVECs [3] = assay: HUVEC vascular tube formation on Matrigel; type: cell-based, human; details: 24 hr
Method: as §1
After 12-24 hours, this rearrangement leads to the development of a network of tube-like structures that resemble capillaries. See, Kubota, et al., J. Cell Biol. 107:1589-1598 (1988).
Matrigel is a solution of murine basement membrane enriched for laminin and collagen type IV and has been used previously as a permissive substrate for vessel formation. See, Albini, et al., Int. J. Oncol. 1:723-730 (1992). The effect of compound 1 on in vitro tube formation was tested using this system. Individual wells of 24 well plates were coated with a 300 μL aliquot of concentrated Matrigel solution (10 mg/mL) and allowed to solidify for 1 hr at 37° C. Compound 1 (1.0, 10 or 20 μM) or DMSO control (0.1%) was added to Matrigel and to the culture media. HUVECs (50,000 cells/well) were incubated on the Matrigel in complete medium for 24 hr then evaluated by phase contrast microscopy and photographed.

NC(=O)c1nnn(Cc2cc(Cl)c(C(=O)c3ccc(Cl)cc3)c(Cl)c2)c1N [Compound 1, 5-amino-1-(4-(4-chlorobenzoyl)-3,5-dichlorobenzyl)1,2,3-triazole-4-carboxamide]
inhibition at 10 µM (HUVECs [1]; 72 h, 3 days from seeding, P2<0.01): 25%
inhibition at 10 µM (HUVECs [1]; 120 h, 5 days from seeding, P2<0.005): 45%
inhibition of HUVEC motility towards type IV collagen (in words) (HUVECs [2]; 1 μM, P2, 0.018): statistically significant dose-dependent inhibition
inhibition of HUVEC motility towards laminin (in words) (HUVECs [2]; 1 μM, P2<0.009): statistically significant dose-dependent inhibition
inhibition of HUVEC motility towards all attractants (fibronectin, laminin, type IV collagen and thrombospondin) (in words) (HUVECs [2]; 10 μM, p2<0.001): statistically significant dose-dependent inhibition
inhibition at 10 µM (MMP-2): 90%
inhibition of tube formation (in words) (HUVECs [3]; 20 μM, similar when omitted from the Matrigel): more striking inhibition of tube formation
appearance of multicellular tubes vs DMSO control (in words) (HUVECs [3]; compound in Matrigel and media, similar when only in media): less extensive, thinner, foreshortened, and less cellular

Reference: US5744492A, “Method for inhibiting angiogenesis” (United States of America, priority 1994, dated 1998)
